pKd: −log10 of the molar value. Where two headings read alike, the source gives them in different places.
Experiments:
[1] = target: human TYK2 (JH2domain-pseudokinase) (Homo sapiens (Human), UniProt P29597); assay: TYK2 JH2 Domain Binding Assay (KINOMEscan)
Method in brief: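 Displacement of a DNA-tagged TYK2 JH2 fusion (human, aa G556–D888, HEK293 extract, <0.1 nM) from ligand-coated beads over 1 h at RT; binding buffer PBS/0.05% Tween 20/10 mM DTT/0.1% BSA.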

Tyk2 kinase domain (DH1) = Tyk2 kinase domain (DH1) (Homo sapiens (Human), UniProt P29597); assay: Tyk2 Radioactive Kinase Assay; type: biochemical; settings: for inhibition at 10 µM: read-out: Tyk2 JH1% Inhibition @ 10 μM
Method in brief: (§1)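 Compounds were tested at a single concentration of 10 μM in a radiometric kinase format against each isolated kinase domain. Activity is reported as percent inhibition at that concentration.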

JAK2 kinase domain (JH1) = JAK2 kinase domain (JH1) (Homo sapiens (Human), UniProt O60674); assay: JAK2 Radioactive Kinase Assay; type: biochemical; settings: for inhibition at 10 µM: read-out: JAK2 JH1% Inhibition @ 10 μM
Method in brief: as §1

Sequence of JAK2 kinase domain (JH1) (O60674 849-1124): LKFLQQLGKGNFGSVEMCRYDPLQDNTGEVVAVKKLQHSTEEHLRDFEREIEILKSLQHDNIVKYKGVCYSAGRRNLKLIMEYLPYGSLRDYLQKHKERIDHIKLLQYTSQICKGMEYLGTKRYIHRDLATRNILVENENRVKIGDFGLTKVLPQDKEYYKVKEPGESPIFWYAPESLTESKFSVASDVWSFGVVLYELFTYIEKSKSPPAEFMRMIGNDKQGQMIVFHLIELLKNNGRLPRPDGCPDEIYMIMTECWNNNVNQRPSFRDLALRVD
Sequence of human TYK2 (JH2domain-pseudokinase) (P29597 556-888): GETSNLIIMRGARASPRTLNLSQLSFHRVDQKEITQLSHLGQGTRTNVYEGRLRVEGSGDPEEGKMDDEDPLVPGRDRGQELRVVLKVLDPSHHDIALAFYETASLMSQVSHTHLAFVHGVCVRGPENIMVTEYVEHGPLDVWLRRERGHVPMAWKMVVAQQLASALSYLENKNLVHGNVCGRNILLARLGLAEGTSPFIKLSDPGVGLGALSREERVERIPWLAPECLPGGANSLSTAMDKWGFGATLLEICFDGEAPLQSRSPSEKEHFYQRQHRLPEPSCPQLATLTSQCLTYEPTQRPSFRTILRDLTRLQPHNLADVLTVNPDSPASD
Sequence of Tyk2 kinase domain (DH1) (P29597 897-1176): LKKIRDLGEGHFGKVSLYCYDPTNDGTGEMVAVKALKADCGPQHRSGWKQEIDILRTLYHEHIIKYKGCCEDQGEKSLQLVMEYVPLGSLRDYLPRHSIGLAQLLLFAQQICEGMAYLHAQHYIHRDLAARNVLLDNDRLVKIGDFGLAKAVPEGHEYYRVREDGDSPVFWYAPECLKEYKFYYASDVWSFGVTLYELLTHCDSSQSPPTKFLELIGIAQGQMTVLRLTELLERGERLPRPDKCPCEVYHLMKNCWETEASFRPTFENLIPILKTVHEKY

SMILES | pKd [1] | inhibition at 10 µM (Tyk2 kinase domain (DH1); compound at 10 μM, ATP 10 μM) [%] | inhibition at 10 µM (JAK2 kinase domain (JH1); compound at 10 μM, ATP 10 μM) [%] | other results
CNc1cc(-c2nn(CCN3CCN(C)CC3)c3ncccc23)nc2c(C(=O)N[C@H]3C[C@H]3F)cnn12 [I-480] | 9.00 to 9.70 | < 50 | < 50 | –
CNc1cc(Nc2cccc3ocnc23)nc2c(C(=O)NCC3(CO)CC3)cnn12 [I-749] | > 9.70 | < 50 | < 50 | –
CNc1cc(Nc2cccn(CCOC3CC3)c2=O)nc2c(C(=O)N[C@H]3CC[C@@H]3O)cnn12 [I-514, 5-((1-(2-cyclopropoxyethyl)-2-oxo-1,2-dihydropyridin-3-yl)amino)-N-((1 S,2S)-2-hydroxycyclobutyl)-7-(methylamino)pyrazolo[1,5-a]pyrimidine-3-carboxamide] | 8.00 to 9.00 | < 50 | < 50 | –
CNc1cc(Nc2cccn(-c3ncccc3F)c2=O)nc2c(C(=O)NC[C@@H](C)CO)cnn12 [I-869] | > 9.70 | – | – | inhibition at 10 µM (Tyk2 kinase domain (DH1); 10 μM compound, 10 μM ATP): < 50%; inhibition at 10 µM (JAK2 kinase domain (JH1); 10 μM compound, 10 μM ATP): < 50%
CNc1cc(Nc2cccn(-c3cccc(C)n3)c2=O)nc2c(C(=O)NC3CCC3)cnn12 [I-130, N-cyclobutyl-5-((6′-methyl-2-oxo-2H-[1,2′-bipyridin]-3-yl)amino)-7-(methylamino)pyrazolo[1,5-a]pyrimidine-3-carboxamide] | > 9.70 | < 50 | < 50 | –
CNc1cc(Nc2cccn([C@@H]3CCCOC3)c2=O)nc2c(C(=O)N[C@H]3CCC[C@H](O)C3)cnn12 [I-734] | 9.00 to 9.70 | – | – | Tyk2 JH1% Inhibition @ 10 μM (Tyk2 kinase domain (DH1); compound at 10 μM, ATP 10 μM): A (percent inhibition at 10 μM lower than 50); JAK2 JH1% Inhibition @ 10 μM (JAK2 kinase domain (JH1); compound at 10 μM, ATP 10 μM): A (percent inhibition at 10 μM lower than 50)
CNc1cc(Nc2cccn(-c3ccnn3C)c2=O)nc2c(C(=O)NC3CC3)cnn12 [I-327] | 9.00 to 9.70 | < 50 | < 50 | –
CNc1cc(Nc2cccn([C@@H]3CCC[C@@H]3O)c2=O)nc2c(C(=O)N[C@H]3CC[C@@H]3OC)cnn12 [I-1100] | 9.00 to 9.70 | – | – | inhibition at 10 µM (Tyk2 kinase domain (DH1); 10 μM compound, 10 μM ATP): < 50%; inhibition at 10 µM (JAK2 kinase domain (JH1); 10 μM compound, 10 μM ATP): < 50%
CNc1cc(Nc2cccnc2OC)nc2c(C(=O)N[C@@H]3CCC[C@@H](O)C3)cnn12 (stereo in doubt) [I-459, N-(3-hydroxycyclohexyl)-5-((2-methoxypyridin-3-yl)amino)-7-(methylamino)pyrazolo[1,5-a]pyrimidine-3-carboxamide] | > 9.70 | < 50 | < 50 | –
CNc1cc(Nc2cccn(-c3ccccn3)c2=O)nc2c(C(=O)N[C@H]3CC[C@@H]3O)cnn12 [I-705] | > 9.70 | < 50 | < 50 | –
CNc1cc(-c2nn(C(C)C)c3ncccc23)nc2c(C(=O)NC3CC3)cnn12 [I-440] | 9.00 to 9.70 | < 50 | < 50 | –
CO[C@@H]1CCN(c2cc(Nc3cc(N)n4ncc(C(N)=O)c4n3)cc(C)n2)C1 [I-30] | 8.00 to 9.00 | < 50 | < 50 | –
CNc1cc(Nc2cccnc2OC2CC2)nc2c(C(=O)N[C@H]3CC[C@H]3O)cnn12 [I-402] | 9.00 to 9.70 | < 50 | < 50 | –
Cc1cc(Nc2cc(N)n3ncc(C(N)=O)c3n2)cc(N2CCCC2=O)n1 [I-55] | < 8.00 | < 50 | < 50 | –
CNc1cc(Nc2cccn(-c3nc(C)co3)c2=O)nc2c(C(=O)NC[C@H](C)CO)cnn12 [I-736] | > 9.70 | < 50 | < 50 | –
CNc1cc(Nc2c(F)ccn(-c3nccs3)c2=O)nc2c(C(=O)NC3CC3)cnn12 [I-581] | 8.00 to 9.00 | < 50 | < 50 | –
CNc1cc(-c2cn(CCN3CCN(C)CC3)c3ncccc23)nc2c(C(=O)N[C@@H]3CC[C@@H]3O)cnn12 [I-907, N-((1R,2S)-2-hydroxycyclobutyl)-7-(methylamino)-5-(1-(2-(4-methylpiperazin-1-yl)ethyl)-1H-pyrrolo[2,3-b]pyridin-3-yl)pyrazolo[1,5-a]pyrimidine-3-carboxamide] | 9.00 to 9.70 | – | – | inhibition at 10 µM (Tyk2 kinase domain (DH1); 10 μM compound, 10 μM ATP): < 50%; inhibition at 10 µM (JAK2 kinase domain (JH1); 10 μM compound, 10 μM ATP): < 50%
CNc1cc(Nc2cccc(N3CC(O)C3)n2)nc2c(C(=O)N[C@@H]3C[C@@H]3F)cnn12 [I-757] | > 9.70 | < 50 | < 50 | –
CNc1cc(Nc2cccn([C@H]3CCOC3)c2=O)nc2c(C(=O)NC3CCC3)cnn12 [I-205] | > 9.70 | < 50 | < 50 | –
CNc1cc(Nc2cccn([C@@H]3CCC[C@@H](O)C3)c2=O)nc2c(C(=O)N[C@H]3CC[C@@H]3OC)cnn12 [I-1129] | 8.00 to 9.00 | – | – | Tyk2 JH1% Inhibition @ 10 μM (Tyk2 kinase domain (DH1); 10 μM compound, 10 μM ATP): A (percent inhibition at 10 μM lower than 50); JAK2 JH1% Inhibition @ 10 μM (JAK2 kinase domain (JH1); 10 μM compound, 10 μM ATP): A (percent inhibition at 10 μM lower than 50)
CNc1cc(Nc2cccn(-c3cc(C)nn3C)c2=O)nc2c(C(=O)N[C@H]3C[C@H]3F)cnn12 [I-341] | 9.00 to 9.70 | < 50 | < 50 | –
CNc1cc(-c2cn(CCN3CCCCC3)c3ncccc23)nc2c(C(=O)N[C@@H]3CC[C@@H]3O)cnn12 [I-874] | 8.00 to 9.00 | – | – | inhibition at 10 µM (Tyk2 kinase domain (DH1); 10 μM compound, 10 μM ATP): < 50%; inhibition at 10 µM (JAK2 kinase domain (JH1); 10 μM compound, 10 μM ATP): < 50%

SMILES | pKd [1] | inhibition at 10 µM (Tyk2 kinase domain (DH1); compound at 10 μM, ATP 10 μM) [%] | inhibition at 10 µM (JAK2 kinase domain (JH1); compound at 10 μM, ATP 10 μM) [%] | other results
CNc1cc(Nc2cccn(-c3nc(C)co3)c2=O)nc2c(C(=O)N[C@H]3CC[C@H]3O)cnn12 [I-707] | > 9.70 | < 50 | < 50 | –
CNc1cc(Nc2cc(F)cn([C@@H]3CCCOC3)c2=O)nc2c(C(=O)NC3CC3)cnn12 [I-533] | > 9.70 | < 50 | < 50 | –
CNc1cc(Nc2cccn([C@H]3CCCN(CCC#N)C3)c2=O)nc2c(C(=O)N[C@@H]3C[C@@H]3F)cnn12 [I-1040] | 9.00 to 9.70 | – | – | inhibition at 10 µM (Tyk2 kinase domain (DH1); 10 μM compound, 10 μM ATP): < 50%; inhibition at 10 µM (JAK2 kinase domain (JH1); 10 μM compound, 10 μM ATP): < 50%
CNc1cc(Nc2cc(C)nn(-c3cnn(C)c3)c2=O)nc2c(C(N)=O)cnn12 [I-73] | 8.00 to 9.00 | < 50 | < 50 | –
CNc1cc(Nc2cccn(C3CCN(C)CC3)c2=O)nc2c(C(=O)NCC(C)(C)CO)cnn12 [I-542] | 9.00 to 9.70 | < 50 | < 50 | –
CNc1cc(Nc2cccn(-c3oc(C)nc3C)c2=O)nc2c(C(=O)N[C@@H]3C[C@@H]3F)cnn12 [I-938] | 9.00 to 9.70 | – | – | inhibition at 10 µM (Tyk2 kinase domain (DH1); 10 μM compound, 10 μM ATP): < 50%; inhibition at 10 µM (JAK2 kinase domain (JH1); 10 μM compound, 10 μM ATP): < 50%
CNc1cc(Nc2cccc([C@H]3CCCCO3)n2)nc2c(C(=O)N[C@@H]3CC[C@@H]3O)cnn12 [I-648] | 9.00 to 9.70 | – | – | Tyk2 JH1% Inhibition @ 10 μM (Tyk2 kinase domain (DH1); compound at 10 μM, ATP 10 μM): A (percent inhibition at 10 μM lower than 50); JAK2 JH1% Inhibition @ 10 μM (JAK2 kinase domain (JH1); compound at 10 μM, ATP 10 μM): A (percent inhibition at 10 μM lower than 50)
CNc1cc(Nc2cccn(-c3ccccc3F)c2=O)nc2c(C(=O)NC[C@H](C)CO)cnn12 [I-1077] | 9.00 to 9.70 | – | – | inhibition at 10 µM (Tyk2 kinase domain (DH1); 10 μM compound, 10 μM ATP): < 50%; inhibition at 10 µM (JAK2 kinase domain (JH1); 10 μM compound, 10 μM ATP): < 50%
CNc1cc(Nc2cccn([C@@H]3CCN(CCF)C3)c2=O)nc2c(C(=O)N[C@@H]3C[C@@H]3F)cnn12 [I-935] | > 9.70 | – | – | inhibition at 10 µM (Tyk2 kinase domain (DH1); 10 μM compound, 10 μM ATP): < 50%; inhibition at 10 µM (JAK2 kinase domain (JH1); 10 μM compound, 10 μM ATP): < 50%
CNc1cc(Nc2cc(Cl)cn(C3CCN(C)CC3)c2=O)nc2c(C(=O)N[C@H]3CC[C@H]3O)cnn12 [I-1006] | > 9.70 | – | – | inhibition at 10 µM (Tyk2 kinase domain (DH1); 10 μM compound, 10 μM ATP): < 50%; inhibition at 10 µM (JAK2 kinase domain (JH1); 10 μM compound, 10 μM ATP): < 50%
CNc1cc(Nc2cc(C)cn(-c3cnn(C4CC4)c3C)c2=O)nc2c(C(=O)NC3CCC3)cnn12 [I-159] | 9.00 to 9.70 | < 50 | < 50 | –
CNc1cc(Nc2cccn(-c3nccs3)c2=O)nc2c(C(N)=O)cnn12 [I-15] | 9.00 to 9.70 | < 50 | < 50 | –
CNc1cc(Nc2cccnc2O[C@@H]2CCOC2)nc2c(C(=O)NC3CC3)cnn12 [I-172] | 9.00 to 9.70 | < 50 | < 50 | –
CNc1cc(Nc2cccnc2OC2CCCCC2)nc2c(C(=O)N[C@H]3C[C@H]3F)cnn12 [I-227] | 9.00 to 9.70 | < 50 | < 50 | –
CNc1cc(Nc2cccnc2OC2CCOCC2)nc2c(C(=O)NC3CC3)cnn12 [I-173] | 9.00 to 9.70 | < 50 | < 50 | –
CNc1cc(Nc2cccn(C3CCCCC3)c2=O)nc2c(C(=O)NC[C@@H](C)CO)cnn12 [I-1119] | > 9.70 | – | – | inhibition at 10 µM (Tyk2 kinase domain (DH1); 10 μM compound, 10 μM ATP): < 50%; inhibition at 10 µM (JAK2 kinase domain (JH1); 10 μM compound, 10 μM ATP): < 50%
CNc1cc(Nc2cccn([C@H]3CCN(C)C[C@H]3F)c2=O)nc2c(C(=O)NC3CC3)cnn12 [I-687] | 9.00 to 9.70 | – | – | Tyk2 JH1% Inhibition @ 10 μM (Tyk2 kinase domain (DH1); compound at 10 μM, ATP 10 μM): A (percent inhibition at 10 μM lower than 50); JAK2 JH1% Inhibition @ 10 μM (JAK2 kinase domain (JH1); compound at 10 μM, ATP 10 μM): A (percent inhibition at 10 μM lower than 50)
CNc1cc(Nc2cccn(-c3oc(C)nc3C)c2=O)nc2c(C(=O)NC3CC3)cnn12 [I-937] | 8.00 to 9.00 | – | – | inhibition at 10 µM (Tyk2 kinase domain (DH1); 10 μM compound, 10 μM ATP): < 50%; inhibition at 10 µM (JAK2 kinase domain (JH1); 10 μM compound, 10 μM ATP): < 50%
CNc1cc(Nc2cc(F)cn(-c3nn(C)cc3C)c2=O)nc2c(C(=O)NC3CC3)cnn12 [I-431] | < 8.00 | < 50 | < 50 | –
CNc1cc(Nc2cccn([C@H]3CCC[C@H]3OC)c2=O)nc2c(C(=O)NC3CC3)cnn12 [I-491] | 8.00 to 9.00 | < 50 | < 50 | –
CNc1cc(Nc2cccc(N3CC[C@@H](OC)C3)n2)nc2c(C(=O)NC3CC3)cnn12 [I-482] | 9.00 to 9.70 | – | – | Tyk2 JH1% Inhibition @ 10 μM (Tyk2 kinase domain (DH1); compound at 10 μM, ATP 10 μM): A (percent inhibition at 10 μM lower than 50); JAK2 JH1% Inhibition @ 10 μM (JAK2 kinase domain (JH1); compound at 10 μM, ATP 10 μM): A (percent inhibition at 10 μM lower than 50)

— patent publication US10508120B2, “TYK2 inhibitors and uses thereof” (Nimbus Lakshmi, Inc., priority 2017, dated 2019)
